Laboratory results as given in patent publication US7728012B2, “Carboxamide compounds and their use as calpain inhibitors” (Abbott GmbH & Co. KG, priority 2006, dated 2010).

Key:
Format in all cases: biochemical
[1] = molecular target: T1, cathepsin B isolated from human liver (Homo sapiens, UniProt P07858); assay: Cathepsin B kinetic fluorescence enzyme inhibition assay; conditions: selectivity ratio versus calpain I
T1 construct: cathepsin B—isolated from human liver; purchased Calbiochem 219362; host or cells: human liver (tissue isolate)
Method: (§1) The following solutions and buffers were employed: • HBS (for 40 ml): 800 μl M HEPES; 2.16 ml 100 mM KCl; 4.8 ml 1M NaCl; 3.59 ml 5% glucose; 60 μl μM MgSO4; 400 μl 100 mM Na pyruvate, 28.19 ml water; pH 7.2-7.5. • lysis buffer (for 20 ml): 400 μl M Tris pH 8.2; 2.74 ml 1M NaCl; 520 μl 0.5M EDTA; 2 ml 10% triton X-100; 0.8 ml (=1:25) CompletePlus (1 tablet/2 ml H2O); 200 μl 100 mM Pefabloc; 13.34 ml water, pH 8.2. • TBST (10×) (for 1 l): 100 mM Tris (12.1 g); 1.5M NaCl (87 g); 1% Tween 20 (10 g), adjusted to pH 8. I Enzyme Inhibition In Vitro: • Testing for blockade of the corresponding enzymic activities was carried out by means of kinetic fluorescence assays (excitation 390 nm, emission 460 nm). • Apparent Ki values were calculated from the experimentally determined IC50 values by the Cheng-Prussoff relation assuming a reversible competitive enzyme inhibition. The Km values of the substrates used under the assay conditions indicated above were: 90 μM (Z-Phe-Arg-AMC, cathepsin B), 10 μM (Z-Gly-Pro-Arg-AMC, cathepsin K), 2 μM (Z-Phe-Arg-AMC, cathepsin L), and 30 μM (Z-Val-Val-Arg-AMC, cathepsin S). • The indicated Ki values are averages of the inhibition constants calculated on the basis of 2 to 4 independent dose-effect plots.
(§2) The following assays were used: • 1. Calpain I: • 20 nM calpain-I—isolated from human erythrocytes (Calbiochem #208713), 100 μM Suc-Leu-Tyr-AMC (Bachem #1-1355) as substrate in buffer with 62 mM imidazole, 0.3 mM CaCl2, 0.10% CHAPS, 0.05% BSA, 1 mM DTT at pH 7.3 and room temperature. • 2. Cathepsin B: • 0.25 nM cathepsin B—isolated from human liver (Calbiochem #219362), 100 μM Z-Phe-Arg-AMC (Bachem #I-1160) as substrate 50 mM MES, 2 mM EDTA, 0.05% Brij 35, 2.5 mM L-cysteine, pH 6.0, room temperature. • 3. Cathepsin K: • 3 nM cathepsin K—activated from recombinant human procathepsin K from E. coli (Calbiochem #342001), 10 μM Z-Gly-Pro-Arg-AMC (Biomol #P-142) as substrate in 50 mM MES, 2 mM EDTA, 0.05% Brij 35, 2.5 mM L-cysteine, pH 6.0, room temperature. • 4. Cathepsin L: • 1 nM cathepsin L—isolated from human liver (Calbiochem #219402), 2 μM Z-Phe-Arg-AMC (Bachem #1-1160) as substrate in 50 mM MES, 2 mM EDTA, 0.05% Brij 35, 2.5 mM L-cysteine, pH 6.0, room temperature. • 5. Cathepsin S: • 0.5 nM recombinant human cathepsin S from E. coli (Calbiochem #219343), 20 μM Z-Val-Val-Arg-AMC (Bachem #1-1540) as substrate in 50 mM MES, 2 mM EDTA, 0.05% Brij 35, 2.5 mM L-cysteine, pH 6.0, room temperature. • The results of the in vitro determination are indicated in Table 1. The following abbreviations are used in Table 1: • The “Calpain activity” column, ++ stands for a calpain Ki (Ki(calpain)) of ≦40 nM and + means: 40 nM<Ki(Calpain)≦100 nM. • The “Sel. cat. B” column indicates the Ki(cathepsin B)/Ki(calpain) ratio. In this connection, ++ means a Ki(cathepsin B)/Ki(calpain) ratio of ≧30 and + means 10≦Ki(cathepsin B)/Ki(calpain)<30. • The “Sel. cat. K” column indicates the Ki(cathepsin K)/Ki(calpain) ratio. In this connection, ++ means a Ki(cathepsin K)/Ki(calpain) ratio of ≧30 and + means 10≦Ki(cathepsin K)/Ki(calpain)<30. • The “Sel. cat. L” column indicates the Ki(cathepsin L)/Ki(calpain) ratio. In this connection, ++ means a Ki(cathepsin L)/Ki(calpain) ratio of ≧50 and + means 30≦Ki(cathepsin L)/Ki(calpain)<50. • The “Sel. cat. S” column indicates the Ki(cathepsin S)/Ki(calpain) ratio. In this connection, ++ means a Ki(cathepsin S)/Ki(calpain) ratio of ≧100 and + means 50≦Ki(cathepsin S)/Ki(calpain)<100.

[2] = molecular target: T2, calpain-I isolated from human erythrocytes (Homo sapiens, UniProt P07384); assay: Calpain I kinetic fluorescence enzyme inhibition assay; conditions: apparent Ki from IC50 by Cheng-Prussoff; average of 2 to 4 dose-effect plots
T2 construct: calpain-I—isolated from human erythrocytes; purchased Calbiochem 208713; host or cells: human erythrocytes (tissue isolate)
T2 sequence (P07384 1-714): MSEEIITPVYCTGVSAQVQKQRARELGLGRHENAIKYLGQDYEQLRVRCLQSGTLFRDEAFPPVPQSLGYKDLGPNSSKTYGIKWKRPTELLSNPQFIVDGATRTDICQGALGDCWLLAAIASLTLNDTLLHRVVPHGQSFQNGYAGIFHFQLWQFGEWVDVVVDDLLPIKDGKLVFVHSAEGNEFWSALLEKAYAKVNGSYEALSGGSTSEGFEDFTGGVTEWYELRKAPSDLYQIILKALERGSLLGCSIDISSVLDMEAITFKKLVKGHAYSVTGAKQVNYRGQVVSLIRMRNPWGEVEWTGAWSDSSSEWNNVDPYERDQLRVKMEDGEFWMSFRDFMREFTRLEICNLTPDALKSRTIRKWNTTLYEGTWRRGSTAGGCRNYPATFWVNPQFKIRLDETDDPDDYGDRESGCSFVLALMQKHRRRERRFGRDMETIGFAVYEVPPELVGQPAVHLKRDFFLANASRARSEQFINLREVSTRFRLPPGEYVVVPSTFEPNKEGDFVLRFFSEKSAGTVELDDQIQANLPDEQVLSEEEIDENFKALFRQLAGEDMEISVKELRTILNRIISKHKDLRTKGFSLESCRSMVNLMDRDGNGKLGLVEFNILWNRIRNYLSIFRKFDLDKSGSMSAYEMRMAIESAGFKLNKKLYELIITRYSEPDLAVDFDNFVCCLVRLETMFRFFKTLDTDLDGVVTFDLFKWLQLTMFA
T2 sequence (P04632 1-268 partner): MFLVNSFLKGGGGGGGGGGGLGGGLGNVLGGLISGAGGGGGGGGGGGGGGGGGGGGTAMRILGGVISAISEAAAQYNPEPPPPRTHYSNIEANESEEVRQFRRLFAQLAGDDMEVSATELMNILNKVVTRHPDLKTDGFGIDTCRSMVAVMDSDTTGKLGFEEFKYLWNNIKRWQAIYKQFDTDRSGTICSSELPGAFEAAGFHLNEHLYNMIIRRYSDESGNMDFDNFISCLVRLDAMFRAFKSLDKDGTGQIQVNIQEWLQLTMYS

[3] = molecular target: T3, recombinant human cathepsin S (Homo sapiens, UniProt P25774); assay: Cathepsin S kinetic fluorescence enzyme inhibition assay; conditions: selectivity ratio versus calpain I
T3 construct: purchased Calbiochem 219343; host or cells: E. coli
T3 sequence (P25774 115-331): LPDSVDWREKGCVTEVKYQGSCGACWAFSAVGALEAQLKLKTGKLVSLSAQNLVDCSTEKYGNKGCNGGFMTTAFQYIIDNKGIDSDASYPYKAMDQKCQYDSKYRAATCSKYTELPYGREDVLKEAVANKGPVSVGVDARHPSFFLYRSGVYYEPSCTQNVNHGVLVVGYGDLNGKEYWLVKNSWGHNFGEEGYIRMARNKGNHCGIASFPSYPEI
Summary of the method: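 Inhibition is measured at room temperature in cysteine-containing MES buffer, pH 6.0, by continuous fluorescence at 460 nm. Cathepsin S (0.5 nM) uses 20 μM Z-Val-Val-Arg-AMC; L (1 nM) and B (0.25 nM) use Z-Phe-Arg-AMC at 2 and 100 μM respectively.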

[4] = molecular target: T4, cathepsin L isolated from human liver (Homo sapiens, UniProt P07711); assay: Cathepsin L kinetic fluorescence enzyme inhibition assay; conditions: selectivity ratio versus calpain I
T4 construct: cathepsin L—isolated from human liver; purchased Calbiochem 219402; host or cells: human liver (tissue isolate)
T4 sequence (P07711 114-333): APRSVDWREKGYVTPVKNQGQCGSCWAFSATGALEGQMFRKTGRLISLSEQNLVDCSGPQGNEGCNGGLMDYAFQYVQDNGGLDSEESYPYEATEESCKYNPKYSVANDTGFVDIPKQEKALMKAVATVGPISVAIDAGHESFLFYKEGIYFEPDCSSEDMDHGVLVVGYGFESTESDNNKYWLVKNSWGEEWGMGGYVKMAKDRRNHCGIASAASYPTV
Method: as §1, §2

| SMILES | Sel cat. B (Ki(cathepsin B)/Ki(calpain) ratio) [1] | Ki [2] [nM] | Sel cat. S (Ki(cathepsin S)/Ki(calpain) ratio) [3] | Sel cat. L (Ki(cathepsin L)/Ki(calpain) ratio) [4] |
| --- | --- | --- | --- | --- |
| CCCCC(NC(=O)c1cc(Cl)cnc1-n1ccc(-c2ccccc2)n1)C(=O)C(N)=O (stereo not drawn) [Example 28, N-{1-[Amino(oxo)acetyl]pentyl}-5-chloro-2-(3-phenyl-1H-pyrazol-1-yl)nicotinamide] | + (10≦Ki(cathepsin B)/Ki(calpain)<30) | ≤ 40 | – | – |
| CC(C)CC(NC(=O)c1cc(Cl)cnc1-n1ccc(-c2ccccc2)n1)C(=O)C(N)=O (stereo not drawn) [Example 32, N-{1-[Amino(oxo)acetyl]-3-methylbutyl}-5-chloro-2-(3-phenyl-1H-pyrazol-1-yl)nicotinamide] | + (10≦Ki(cathepsin B)/Ki(calpain)<30) | ≤ 40 | – | – |
| CCCCC(NC(=O)c1cccnc1-n1ccc(-c2ccc(N3CCOCC3)cc2)n1)C(=O)C(N)=O (stereo not drawn) [Example 33, N-{1-[Amino(oxo)acetyl]pentyl}-2-[3-(4-morpholin-4-ylphenyl)-1H-pyrazol-1-yl]nicotinamide] | + (10≦Ki(cathepsin B)/Ki(calpain)<30) | ≤ 40 | + (50≦Ki(cathepsin S)/Ki(calpain)<100) | – |
| Cc1cc(-c2ccccc2)nn1-c1ncccc1C(=O)NC(Cc1ccccc1)C(=O)C(N)=O (stereo not drawn) [Example 61, N-(3-Amino-1-benzyl-2,3-dioxopropyl)-2-(5-methyl-3-phenyl-1H-pyrazol-1-yl)nicotinamide] | + (10≦Ki(cathepsin B)/Ki(calpain)<30) | – | ++ (Ki(cathepsin S)/Ki(calpain) ratio of ≧100) | – |
| N#Cc1ccc(-c2ccn(-c3ncccc3C(=O)NC(Cc3ccccc3)C(=O)C(N)=O)n2)cc1 (stereo not drawn) [Example 62, N-(3-Amino-1-benzyl-2,3-dioxopropyl)-2-[3-(4-cyanophenyl)-1H-pyrazol-1-yl]nicotinamide] | – | 40 to 100 | ++ (Ki(cathepsin S)/Ki(calpain) ratio of ≧100) | ++ (Ki(cathepsin L)/Ki(calpain) ratio of ≧50) |
| NC(=O)C(=O)C(Cc1ccccc1)NC(=O)c1cccnc1-n1ccc(-c2ccc(N3CCCCC3)cc2)n1 (stereo not drawn) [Example 64, N-(3-Amino-1-benzyl-2,3-dioxopropyl)-2-[3-(4-piperidin-1-ylphenyl)-1H-pyrazol-1-yl]nicotinamide] | + (10≦Ki(cathepsin B)/Ki(calpain)<30) | ≤ 40 | ++ (Ki(cathepsin S)/Ki(calpain) ratio of ≧100) | – |
| NC(=O)C(=O)C(Cc1ccccc1)NC(=O)c1cccnc1-n1cc2ccccc2n1 (stereo not drawn) [Example 78, N-(3-Amino-1-benzyl-2,3-dioxopropyl)-2-(2H-indazol-2-yl)nicotinamide] | – | 40 to 100 | + (50≦Ki(cathepsin S)/Ki(calpain)<100) | ++ (Ki(cathepsin L)/Ki(calpain) ratio of ≧50) |
| NC(=O)C(=O)C(Cc1ccccc1)NC(=O)c1ccccc1-n1ccc(-c2ccccc2)n1 (stereo not drawn) [Example 106, N-[3-Amino-2,3-dioxo-1-(phenylmethyl)propyl]-2-(3-phenyl-1H-pyrazol-1-yl)benzamide] | – | ≤ 40 | ++ (Ki(cathepsin S)/Ki(calpain) ratio of ≧100) | + (30≦Ki(cathepsin L)/Ki(calpain)<50) |
| NC(=O)C(=O)C(Cc1ccccc1)NC(=O)c1cccnc1-n1cc2c(n1)-c1ccccc1OCC2 (stereo not drawn) [Example 141, N-[3-Amino-2,3-dioxo-1-(phenylmethyl)propyl]-2-(4,5-dihydro-2H-[1]benzoxepino[5,4-c]pyrazol-2-yl)pyridine-3-carboxamide] | – | 40 to 100 | ++ (Ki(cathepsin S)/Ki(calpain) ratio of ≧100) | ++ (Ki(cathepsin L)/Ki(calpain) ratio of ≧50) |
| NC(=O)C(=O)C(Cc1ccccc1)NC(=O)c1cccnc1-n1ccc(-c2cccc3cnccc23)n1 (stereo not drawn) [Example 156, N-[3-Amino-2,3-dioxo-1-(phenylmethyl)propyl]-2-(3-isoquinolin-5-yl-1H-pyrazol-1-yl)pyridine-3-carboxamide] | + (10≦Ki(cathepsin B)/Ki(calpain)<30) | – | ++ (Ki(cathepsin S)/Ki(calpain) ratio of ≧100) | + (30≦Ki(cathepsin L)/Ki(calpain)<50) |
| CS(=O)(=O)NCc1cn(-c2ncccc2C(=O)NC(Cc2ccccc2)C(=O)C(N)=O)nc1-c1ccc(F)cc1 (stereo not drawn) [Example 187, N-[3-Amino-2,3-dioxo-1-(phenylmethyl)propyl]-2-[3-(4-fluorophenyl)-4-{[(methylsulfonyl)amino]methyl}-1H-pyrazol-1-yl]pyridine-3-carboxamide] | – | 40 to 100 | ++ (Ki(cathepsin S)/Ki(calpain) ratio of ≧100) | + (30≦Ki(cathepsin L)/Ki(calpain)<50) |
